Holding throughout (format): cell-based, human
Data set [1] relates to DU145/PCA-1. As to the kind of experiment: Cell growth of PCA-1-overexpressing cell line with EGF stimulation (MTS reagent). To be noted: EGF 10 ng/ml, 36 hours, serum-free, pretreatment with ERK inhibitor. How it is done:
(§1) The human prostate cancer cell line DU145 (purchased from ATCC) was cultured in RPMI medium (in the presence of 10% serum) and used. The human PCA-1 gene was cleaved out from a PCA-1 vector, and this was inserted into pIRES/Neo, which is a vector that encodes the neomycin resistance gene (hereinafter pIRES/Neo/PCA-1). […] For control, a clone (DU145/Neo) incorporating an empty vector, and cultured under the same conditions, was used.
Experiments were performed using the MTS [(3-(4,5-dimethylthiazol-2-yl)-5-(3-carboxymethoxyphenyl)-2-(4-sulphonyl)-2H-tetrazolium, inner salt] reagent (Promega, Tokyo, Japan) in accordance with the attached protocol.
Cell growth for 36 hours under serum-free conditions was examined.
(Tetrazolium assays rely on reduction of a dye to a coloured formazan, in cell work by metabolically active cells.)

Data set [2] has as its system DU145/PCA-1. As to the kind of experiment: Paclitaxel-induced apoptosis quantified by flowcytometry. The procedure:
as §1
A control cell line (DU145/Neo) and DU145/PCA-1 were stimulated with paclitaxel (100 nM); 48 hours later, apoptosis was quantified using flowcytometry.

Data set [3] deals with DU145. As to the kind of experiment: Apoptosis analysis (propidium iodide, flowcytometer) of DU145 transfected with siRNA. How it is done: (§2) The human prostate cancer cell line DU145 (purchased from ATCC) was cultured in RPMI1640 medium (in the presence of 10% fetal bovine serum) and used.
(§3) DU145 was transiently transfected with siRNAs against PCA-1 ([…] (SEQ ID NO:4), […] (SEQ ID NO:5), […] (SEQ ID NO:6)) using DharmaFECT 1 (GE Healthcare Bioscience.). Expression suppression and knockdown effects were confirmed by real-time PCR and PCA-1 quantitative ELISA method. Control siRNA ([…] (SEQ ID NO:7)) was purchased from GE Healthcare Bioscience.
After DU145 was transfected with PCA-1 siRNA, the cells were harvested and fixed with ethanol. Thereafter, the cells were stained with propidium iodide, and the ratio of apoptosis cells was analyzed using a flowcytometer.

In data set [4] the test system is DU145. The data set is described as follows: WST-1 method, growth of DU145 transfected with siRNA. How it is done: as §2, §3
Two days after DU145 was transfected with siRNA, the cells were harvested, and 100 μl of the cells were sown to a 96-well plate at 1×10^4/ml. Thereafter, 10 μl of a 1:9 mixture of a 1-methoxy PMS (1-methoxy-5-methylphenazinium.methylsulfate) solution and a WST-1 (2-(4-Iodophenyl)-3-(4-nitrophenyl)-5-(2,4-disulfophenyl)-2H-tetrazolium, monosodium salt) solution was added to each well every 24 hours; 1 hour later, absorbance was measured at 450 nm. As the control wavelength, 630 nm was used. The day of the start of transfection is designated as day 0.

For data set [5], the system named is DU145/PCA-1. As to the kind of experiment: TRAIL-induced apoptosis analyzed by flowcytometry. To be noted: TRAIL 50 ng/ml, 24 hours. The procedure:
as §1
TRAIL is drawing attention as a new-generation anticancer agent for prostate cancer, and it has been reported that FLIP acts suppressively on the mechanism therefor.

The source of these data is patent US20100297145A1, “Apoptosis promoter, cell proliferation inhibitor, prophylactic/therapeutic agent for cancer, screening method for the promoter, inhibitor or agent” (priority 2005, published 2010).

As to `N#CC(=C(/N)Sc1ccccc1N)/C(C#N)=C(\N)Sc1ccccc1N` [U0126], the “effect of pretreatment on EGF-stimulated growth increase of DU145/PCA-1” value in data set [1] was “inhibited (cancelled)”. Also, the “effect on the paclitaxel-induced apoptosis inhibitory effect of PCA-1” value in data set [2] (DU145/PCA-1, paclitaxel 100 nM, with ERK inhibitor) is recorded as “cancelled”.
Take `CC(=O)O[C@H]1C(=O)[C@@]2(C)[C@H]([C@H](OC(=O)c3ccccc3)[C@]3(O)C[C@H](OC(=O)[C@H](O)[C@@H](NC(=O)c4ccccc4)c4ccccc4)C(C)=C1C3(C)C)[C@]1(OC(C)=O)CO[C@@H]1C[C@@H]2O` [paclitaxel]: in data set [2] (paclitaxel 100 nM, 48 hours), the “paclitaxel-induced apoptosis in DU145/PCA-1 compared with control strain (DU145/Neo)” value is on record as “significantly inhibited”.
Consider “Control siRNA: Control siRNA (auccgcgcgauaguacgua (SEQ ID NO:7)) purchased from GE Healthcare Bioscience (AUCCGCGCGAUAGUACGUA; listed as RNA, chemistry not given here)”, for which the “ratio of apoptosis cells” value is on record as 0.98% in data set [3] (DU145, Day 2); 1.96% in data set [3] (DU145, Day 3); 5.00% in data set [3] (DU145, Day 4); 1.88% in data set [3] (DU145, Day 5). Moreover, the “absorbance relative to the absorbance on day 3 written as 1” value turned out to be 1 in data set [4] (DU145, Day 3); 1.99 in data set [4] (DU145, Day 4); 3.98 in data set [4] (DU145, Day 5); 7.25 in data set [4] (DU145, Day 6); 11.91 in data set [4] (DU145, Day 7); 12.90 in data set [4] (DU145, Day 8). The “growth of DU145 over time (in words)” value in data set [4] (DU145 transfected cells, WST-1) is given as “remarkable growth”.

B1: TRAIL: tumor necrosis factor-related apoptosis-inducing ligand (protein, UniProt P50591 1-281, looked up)
Tumor necrosis factor ligand …: MAMMEVQGGPSLGQTCVLIVIFTVLLQSLCVAVTYVYFTNELKQMQDKYSKSGIACFLKEDDSYWDPNDEESMNSPCWQVKWQLRQLVRKMILRTSEETISTVQEKQQNISPLVRERGPQRVAAHITGTRGRSNTLSSPNSKNEKALGRKINSWESSRSGHSFLSNLHLRNGELVIHEKGFYYIYSQTYFRFQEEIKENTKNDKQMVQYIYKYTSYPDPILLMKSARNSCWSKDAEYGLYSIYQGGIFELKENDRIFVSVTNEHLIDMDHEASFFGAFLVG
Consider B1, for which the “apoptosis induction in DU145/PCA-1 compared with control (DU145/Neo)” value in data set [5] was “significantly inhibited”.
